This is an account of results in US20190270733A1, “Quinoline and Isoquinoline Based HDAC Inhibitors and Methods of Use Thereof” (Reaction Biology Corp., priority 2018, published 2019).

Where “and” joins values, the source holds several entries; their conditions need not be identical. Equal entries are not always repeated. Where two headings read alike, the source gives them in different places. A value given as a limit tells only on which side of the number the result lay.

Data set [1] can be described thus: Brain exposure experiment in mice. The format is in vivo. As to conditions: 1 hour after exposure. How it is done: Brain exposure experiments were performed wherein mice were exposed to compound Example 5 at an IV dosage of 1 mg/kg (Table 4).
The next data set concerns the target T1, Human HDAC1 (Homo sapiens, UniProt Q13547).
T1 construct: full-length with a C-terminal His-tag and a C-terminal FLAG-tag; His-tag (C); FLAG-tag (C); made in house
The data set is described as follows: Biochemical HDAC assay, HDAC1. As to conditions: incubation time 120 min. How it is done:
Human HDAC1 (GenBank Accession No. NM_004964), full-length with a C-terminal His-tag and a C-terminal FLAG-tag, MW=56 kDa, was expressed in a baculovirus expression system.
(§1) • I. Compound handling: Testing compounds were dissolved in 100% DMSO to a specific concentration. The serial dilution was conducted by epMotion 5070 in DMSO. • II. HDAC reaction buffer: 50 mM Tris-HCl, pH8.0, 137 mM NaCl, 2.7 mM KCl, and 1 mM MgCl2, Added fresh: 1 mg/ml BSA, 1% DMSO. • III. Substrate: Fluorogenic HDAC General Substrate for HDAC1, 2, 3, 6, 10, 11 ans Sirt1, 2 and 3: Arg-His-Lys-Lys(Ac); HDAC8 only substrate: Arg-His-Lys(Ac)-Lys(Ac); Class2A Substrate (HDAC4, 5, 7 and 9): Acetyl-Lys(trifluoroacetyl)-AMC; Sirt5 substrate: Ac-Lys(succinyl)-AMC. • IV. General Reaction Procedure: (Standard IC50 determination) • a. Delivered 2× enzyme in wells of reaction plate except No Enzyme (No En) control wells. Add buffer in No En wells. • b. Delivered compounds in 100% DMSO into the enzyme mixture by Acoustic technology (Echo550; nanoliter range). Spin down and pre-incubation. • c. Delivered 2× Substrate Mixture (Fluorogenic HDAC Substrate and co-factor (500 μM of Nicotinamide adenine dinucleotide (NAD^+) in all Sirt assay) in all reaction wells to initiate the reaction. Spin and shake. • d. Incubated for 1-2 hr. at 30° C. with seal. • e. Added Developer with Trichostatin A (or TMP269 or NAD^+) to stop the reaction and to generate fluorescent color. • f. Fluorescence was read (excitatory, 360; emission, 460) using the EnVision Multilabel Plate Reader (Perkin Elmer) • g. Endpoint reading was taken for analysis after the development reaches plateau. • V. Data Analysis: The percentages of enzyme activity (relative to DMSO controls) and IC50 values were calculated using the GraphPad Prism 4 program based on a sigmoidal dose-response equation.
(§2) Compounds with indicated doses was tested in the biochemical assays of HDAC1, HDAC2, HDAC3, HDAC4, HDAC5, HDAC6, HDAC7, HDAC8, HDAC9, HDAC10, or HDAC11 enzyme. The incubation time in HDAC1/2 assays are 120 min, and that for other HDACs are 10 min. The curve fit and IC50 values were calculated using the GraphPad Prism 4 program based on a sigmoidal dose-response equation.

Another data set addresses T2, Human HDAC8 (Homo sapiens, UniProt Q9BY41).
T2 construct: full-length with a C-terminal His tag; His tag (C); made in house
T2 sequence (Q9BY41 1-377): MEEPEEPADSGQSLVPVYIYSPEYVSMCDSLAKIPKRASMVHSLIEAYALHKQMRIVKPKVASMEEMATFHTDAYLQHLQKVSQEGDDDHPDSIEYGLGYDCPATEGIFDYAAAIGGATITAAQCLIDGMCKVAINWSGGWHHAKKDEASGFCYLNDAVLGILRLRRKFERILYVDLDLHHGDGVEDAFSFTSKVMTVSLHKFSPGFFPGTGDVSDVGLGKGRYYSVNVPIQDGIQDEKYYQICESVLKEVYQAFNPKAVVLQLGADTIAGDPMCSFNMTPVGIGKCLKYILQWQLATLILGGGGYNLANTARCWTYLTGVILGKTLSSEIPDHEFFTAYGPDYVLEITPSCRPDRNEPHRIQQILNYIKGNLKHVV
The data set is described as follows: Biochemical HDAC assay, HDAC8. As to conditions: incubation time 10 min. How it is done: Human HDAC8 (GenBank Accession No. NM_018486), full-length with a C-terminal His tag, MW=46.4 kDa, was expressed in a baculovirus expression system.
as §1, §2

The next data set has as its target T3, Human HDAC2 (Homo sapiens, UniProt Q92769).
T3 construct: full-length with a C-terminal His-tag; His-tag (C); made in house
The experiment in a line: Biochemical HDAC assay, HDAC2. As to conditions: incubation time 120 min. How it is done:
Human HDAC2 (GenBank Accession No. NM_001527), full-length with a C-terminal His-tag, MW=56 kDa, was expressed in a baculovirus expression system.
as §1, §2

The target of data set [2] is T4, Complex of human HDAC3 and human NCOR2 (Homo sapiens, UniProt O15379).
T4 construct: full-length with a C-terminal His tag; His tag (C); made in house
The experiment in a line: Biochemical HDAC assay, HDAC3. As to conditions: incubation time 10 min. How it is done: Complex of human HDAC3 (GenBank Accession No. NM_003883), full-length with a C-terminal His tag, MW=49.7 kDa, and human NCOR2 (amino acid 395-489) (GenBank Accession No. NM_006312), N-terminal GST tag, MW=37.6 kDa, was co-expressed in a baculovirus expression system.
as §1, §2

Where [3] appears, read: IV 1 mg/kg, individual mice, 1 mg/kg.

T3 sequence (Q92769 whole entry): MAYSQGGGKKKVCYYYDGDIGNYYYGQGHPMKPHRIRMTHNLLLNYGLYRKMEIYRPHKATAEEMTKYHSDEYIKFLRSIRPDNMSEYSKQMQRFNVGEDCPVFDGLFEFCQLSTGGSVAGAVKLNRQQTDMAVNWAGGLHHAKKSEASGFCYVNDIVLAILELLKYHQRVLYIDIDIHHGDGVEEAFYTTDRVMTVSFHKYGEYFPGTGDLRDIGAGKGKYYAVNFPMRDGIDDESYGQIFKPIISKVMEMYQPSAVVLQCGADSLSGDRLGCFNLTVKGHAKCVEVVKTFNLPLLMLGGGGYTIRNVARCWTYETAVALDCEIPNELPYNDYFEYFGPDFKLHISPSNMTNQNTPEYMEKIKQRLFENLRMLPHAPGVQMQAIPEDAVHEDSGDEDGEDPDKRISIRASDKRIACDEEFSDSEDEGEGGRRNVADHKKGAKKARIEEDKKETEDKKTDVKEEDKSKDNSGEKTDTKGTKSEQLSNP
T1 sequence (Q13547 whole entry): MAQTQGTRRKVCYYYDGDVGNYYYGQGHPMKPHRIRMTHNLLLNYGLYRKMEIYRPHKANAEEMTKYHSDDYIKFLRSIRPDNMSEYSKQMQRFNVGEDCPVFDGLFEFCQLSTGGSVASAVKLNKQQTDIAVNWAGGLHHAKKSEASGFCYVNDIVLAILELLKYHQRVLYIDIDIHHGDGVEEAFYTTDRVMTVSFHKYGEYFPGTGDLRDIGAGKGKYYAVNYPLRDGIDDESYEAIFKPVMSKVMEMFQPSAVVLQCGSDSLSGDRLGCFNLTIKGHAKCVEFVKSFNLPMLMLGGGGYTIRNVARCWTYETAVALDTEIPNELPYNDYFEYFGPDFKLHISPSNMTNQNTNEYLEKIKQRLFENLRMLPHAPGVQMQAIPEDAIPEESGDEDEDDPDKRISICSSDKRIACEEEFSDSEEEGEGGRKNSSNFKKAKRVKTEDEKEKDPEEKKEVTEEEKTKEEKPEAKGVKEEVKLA
T4 sequence (O15379 whole entry): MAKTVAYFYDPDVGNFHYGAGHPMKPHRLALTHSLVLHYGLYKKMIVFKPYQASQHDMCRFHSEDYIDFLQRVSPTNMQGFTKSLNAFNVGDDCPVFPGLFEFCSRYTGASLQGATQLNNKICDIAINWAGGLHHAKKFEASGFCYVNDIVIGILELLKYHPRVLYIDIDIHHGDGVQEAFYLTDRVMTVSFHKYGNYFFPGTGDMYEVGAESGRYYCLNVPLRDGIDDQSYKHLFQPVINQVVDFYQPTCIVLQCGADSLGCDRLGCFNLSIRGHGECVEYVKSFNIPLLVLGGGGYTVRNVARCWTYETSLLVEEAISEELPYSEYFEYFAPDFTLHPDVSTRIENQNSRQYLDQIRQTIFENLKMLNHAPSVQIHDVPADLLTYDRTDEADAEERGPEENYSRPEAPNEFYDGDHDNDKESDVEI
T4 sequence (Q9Y618 395-489 partner limits assumed): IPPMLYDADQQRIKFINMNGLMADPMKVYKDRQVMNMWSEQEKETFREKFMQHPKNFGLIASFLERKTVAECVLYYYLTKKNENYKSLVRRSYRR

Regarding `Nc1ccc(-c2cccs2)cc1NC(=O)c1ccc2c(c1)CCC(=O)N2` [Example 5, N-(2-amino-5-(thiophen-2-yl)phenyl)-2-oxo-1,2,3,4-tetrahydroquinoline-6-carboxamide], the “brain penetration (in words)” value in data set [1] (IV 1 mg/kg) is reported as “no brain penetration”. Also, the Brain concentration in data set [1] (setting [3]) was determined as 0 ng/mL. The Plasma concentration in data set [1] (setting [3]) was 206 ng/mL and 0.57 μM and 270 ng/mL and 0.74 μM. Besides, the concentration at 1 h in data set [1] (IV 1 mg/kg, individual mice, 1 mg/kg, read-out: Brain concentration) is 0.00 µM; in data set [1] (mouse, brain, iv, 1 mg/kg, average, read-out: Brain concentration), 0 ng/mL and 0 nM; in data set [1] (mouse, brain, iv, 1 mg/kg, individual mice, read-out: Brain concentration), 0 ng/mL and 0 nM; in data set [1] (mouse, plasma, iv, 1 mg/kg, average, read-out: Plasma concentration), 267 ng/mL and 730 nM; in data set [1] (mouse, plasma, iv, 1 mg/kg, individual mice, read-out: Plasma concentration), 324 ng/mL and 890 nM. Also, the half-maximal inhibitory concentration (IC50) (commonly the midpoint of a concentration-inhibition curve) was 2.5 nM on Human HDAC1, above 10000 nM at Human HDAC8, 34 nM on Human HDAC2 and above 10000 nM in data set [2].
